The text below walks through data of publication PMC11996864, “A small-molecule inhibitor of BCL10-MALT1 interaction abrogates progression of diffuse large B cell lymphoma” (The Journal of Clinical Investigation, 2025).

In data set [1] the test system is OCI-Ly1 cells. In words: CellTiter-Glo ATP viability. The format is cell-based, human. How it is done: (§1) Cell proliferation, viability, and apoptosis assays. […]
(§2) Fluorescent Intensity (MFI) was analyzed by FlowJo (version 10.8.0, BD). CellTiter-glo luminescence assay (Promega, Cat# G7570) was used to quantify ATP levels as a surrogate marker of metabolic viability in DLBCL cells treated with compounds for 6-8 days. Annexin V Alexa 488 (ThermoFisher Scientific, Cat# A13201) and SYTOX Blue Dead Cell (ThermoFisher Scientific, Cat# S34857) stains were used to detect apoptosis in DLBCL cells after treatment with 1 µM compounds for 8 days in TMD8 and OCI-Ly1 and for 5 days in OCI-Ly3 cells, then analyzed with flow cytometry. The percentages of cells in early and late apoptosis were combined for quantification. For CellTrace Violet, CellTiter-glo, and Annexin V apoptosis assays, cell were cultured in media with 50% of the usual serum. […]
(In general: Cellular ATP, detected with luciferase, serves as a proxy for viable cell number.)

For data set [2], the system named is TMD8 cells. Description: CellTiter-Glo ATP viability. The format is cell-based, human. How it is done: as §1, §2
Data set [3] has as its system TMD8 cells. In words: Apoptosis, annexin V/SYTOX Blue flow cytometry. It counts as cell-based, human. Here is the method: as §1
The percentages of cells in early and late apoptosis were combined for
quantification. For CellTrace Violet, CellTiter-glo, and Annexin V apoptosis assays, cell were
cultured in media with 50% of the usual serum. […]
For orientation: Flow cytometry measures light scatter and fluorescence of single cells or particles in a stream.

For data set [4], the system named is human primary T cells. Description: Human T cell apoptosis, annexin V. It counts as cell-based. How it is done:
Annexin V Alexa 488
(ThermoFisher Scientific, Cat# A13201) and SYTOX Blue Dead Cell (ThermoFisher Scientific, Cat# S34857) stains were used to detect apoptosis in DLBCL cells after treatment with 1 µM compounds for 8 days in TMD8 and OCI-Ly1 and for 5 days in OCI-Ly3 cells, then analyzed with flow cytometry. The percentages of cells in early and late apoptosis were combined for […]
quantification. […]
Human T cell apoptosis. Human CD4/CD8 T cells were isolated from blood using Pan T Cell Isolation Kit (Miltenyi Biotec, Cat# 130-096-535), IRB exemption STUDY21080109. T cells were incubated with DynabeadsTM Human T-Activator CD3/CD28 (Thermo Fisher Scientific, Cat# 11131D) for 72 hours after which cells were grown in RPMI containing 10% FBS and IL-2 (Peprotech, Cat# 200-02). T cells were treated with M1i-124 (1 µM) or DMSO control with media change/drug treatment every 2-4 days. Apoptosis was evaluated on day 6 as described previously except that annexin V 647 was utilized (Invitrogen, A23204). Data is from 3 independent donors. […]

Data set [5] deals with T1, CYP3A4T (Homo sapiens, UniProt P08684).
T1 construct: from tissue; host or cells: pooled, mixed-gender human liver microsomes
In words: Reversible CYP inhibition in human liver microsomes. It counts as in vitro ADME. The note with it: read-out: Direct inhibition (IC50) CYP3A4T. Here is the method: (§3) Pharmacokinetic and cytochrome P450 inhibition studies. Studies were performed with the assistance of Touchstone Biosciences (Plymouth Meeting, Pennsylvania). […]
(§4) For reversible CYP […]
(§5) inhibition studies, different concentrations of M1i-124 were added to 0.2 mg/ml pooled, mixed-gender human liver microsomes (HLM). Each CYP450 isoform-specific probe substrate (CYP1A2, CYP2C9, CYP2C19, CYP2D6, and CYP3A4) was incubated individually with HLM and M1i-124 or corresponding positive control inhibitor (Phenacetin, Tolbutamaide, S-Mephenytoin, Dextromethorphan, Midazolam, and Testosterone). Samples were analyzed for metabolites of the probe substrates by LC-MS/MS at each of the test compound concentrations. A decrease in the formation of the metabolites compared to vehicle control was used to calculate the […]
On the technique in general: Microsomes from liver hold many membrane-bound enzymes, among them those of drug oxidation.

The target of data set [6] is T2, CYP3A4M (Homo sapiens, UniProt P08684).
T2 construct: from tissue; host or cells: pooled, mixed-gender human liver microsomes
Described as above. It counts as in vitro ADME. The note with it: read-out: Direct inhibition (IC50) CYP3A4M. How it is done: as §3, §4, §5

The target in data set [7] is T3, CYP2C19 (Homo sapiens, UniProt P33261).
T3 construct: from tissue; host or cells: pooled, mixed-gender human liver microsomes
The data set is described as above. The format is in vitro ADME. The following applies: read-out: Direct inhibition (IC50) CYP2C19. How it is done: as §3, §4, §5

The target of data set [8] is T4, CYP2D6 (Homo sapiens, UniProt P10635).
T4 construct: from tissue; host or cells: pooled, mixed-gender human liver microsomes
The description is as above. It counts as in vitro ADME. The following applies: read-out: Direct inhibition (IC50) CYP2D6. How it is done:
as §3, §4, §5

For data set [9], the target named is T5, CYP1A2 (Homo sapiens, UniProt P05177).
T5 construct: from tissue; host or cells: pooled, mixed-gender human liver microsomes
The description is as above. The format is in vitro ADME. The note with it: read-out: Direct inhibition (IC50) CYP1A2. Here is the method:
as §3, §4, §5

For data set [10], the target named is T6, CYP2C9 (Homo sapiens, UniProt P11712).
T6 construct: from tissue; host or cells: pooled, mixed-gender human liver microsomes
The data set is described as above. It counts as in vitro ADME. The following applies: read-out: Direct inhibition (IC50) CYP2C9. How it is done:
as §3, §4, §5

Data set [11] concerns the target T7, full-length MALT1 (Homo sapiens, UniProt Q9UDY8).
T7 construct: full-length GST-tagged MALT1 (Novus, catalog H00010892-P01) protein; purchased Novus H00010892-P01
Description: SPR binding of M1i-124 to immobilized full-length MALT1. The note with it: steady-state affinity model; read-out: equilibrium dissociation constant (KD). Here is the method: Surface plasmon resonance (SPR) experiments were performed on a Biacore 2000 system (Cytiva). Full-length GST-BCL10 (Abnova, catalog H00008915-P01) was immobilized onto a gold sensor chip surface, and analyte solution containing MALT1(DD+Ig1-2), MALT1(DD), or MALT1(Ig1-2) purified protein was injected over the surface through a series of flow cells (see Supplemental Methods for details on protein purification). The binding kinetic parameters were obtained using the Langmuir model for global fitting with 1:1 binding ratio where one ligand molecule interacts with one analyte molecule. The equilibrium dissociation constant (KD) of M1i-124 to full-length GST-tagged MALT1 (Novus, catalog H00010892-P01) protein was determined by Creative Biolabs using Biacore T200. Full-length MALT1 protein was immobilized onto CM5 sensor chip surface, and M1i-124 was injected at concentrations of 0, 12.5, 25, 50, 100, and 200 μM. The steady-state affinity model was used to determine the KD.

Structures are written as SMILES. “And” between values parts separate entries of the source, which are not always exact repeats. Equal values may be shown once. “Also recorded” adds a separate entry of the source.

For orientation: Kd means the concentration at which binding is half-saturated.

T7 sequence (Q9UDY8 1-813 isoform Q9UDY8-2): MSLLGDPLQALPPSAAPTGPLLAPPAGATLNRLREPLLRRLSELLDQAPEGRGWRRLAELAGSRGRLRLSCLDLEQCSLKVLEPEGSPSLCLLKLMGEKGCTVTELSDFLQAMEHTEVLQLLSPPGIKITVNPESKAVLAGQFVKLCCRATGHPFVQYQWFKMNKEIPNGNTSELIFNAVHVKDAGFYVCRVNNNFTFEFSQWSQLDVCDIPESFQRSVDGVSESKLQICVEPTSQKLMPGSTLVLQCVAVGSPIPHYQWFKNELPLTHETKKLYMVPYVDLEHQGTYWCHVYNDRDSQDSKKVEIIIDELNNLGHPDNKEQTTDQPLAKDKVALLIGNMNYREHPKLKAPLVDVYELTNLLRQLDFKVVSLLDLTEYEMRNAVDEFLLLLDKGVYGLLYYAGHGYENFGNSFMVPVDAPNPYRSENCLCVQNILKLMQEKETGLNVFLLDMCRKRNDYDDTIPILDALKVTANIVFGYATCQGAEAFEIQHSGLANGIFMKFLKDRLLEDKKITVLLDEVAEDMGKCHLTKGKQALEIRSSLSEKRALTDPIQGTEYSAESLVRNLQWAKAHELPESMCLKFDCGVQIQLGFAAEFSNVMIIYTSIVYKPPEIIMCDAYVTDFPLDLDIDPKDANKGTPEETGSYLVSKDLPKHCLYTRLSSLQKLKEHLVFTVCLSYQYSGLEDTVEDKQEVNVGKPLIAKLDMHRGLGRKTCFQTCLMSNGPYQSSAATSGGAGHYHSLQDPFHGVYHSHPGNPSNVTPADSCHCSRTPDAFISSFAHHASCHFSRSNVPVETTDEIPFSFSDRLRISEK
T5 sequence (P05177 whole entry): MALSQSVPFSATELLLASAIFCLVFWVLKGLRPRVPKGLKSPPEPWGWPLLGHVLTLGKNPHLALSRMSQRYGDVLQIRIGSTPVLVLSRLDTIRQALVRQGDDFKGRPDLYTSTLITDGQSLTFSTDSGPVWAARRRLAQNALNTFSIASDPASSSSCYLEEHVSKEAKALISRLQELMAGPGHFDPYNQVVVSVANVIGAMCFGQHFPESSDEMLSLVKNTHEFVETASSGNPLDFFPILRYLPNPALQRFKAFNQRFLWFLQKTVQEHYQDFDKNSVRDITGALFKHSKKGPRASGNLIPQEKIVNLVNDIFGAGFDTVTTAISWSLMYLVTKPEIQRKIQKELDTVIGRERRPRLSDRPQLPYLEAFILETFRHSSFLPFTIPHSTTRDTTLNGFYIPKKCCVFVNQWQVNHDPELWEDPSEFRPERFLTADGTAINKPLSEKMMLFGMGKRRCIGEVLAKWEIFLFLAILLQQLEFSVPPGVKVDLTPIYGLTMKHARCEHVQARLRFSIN
T4 sequence (P10635 whole entry): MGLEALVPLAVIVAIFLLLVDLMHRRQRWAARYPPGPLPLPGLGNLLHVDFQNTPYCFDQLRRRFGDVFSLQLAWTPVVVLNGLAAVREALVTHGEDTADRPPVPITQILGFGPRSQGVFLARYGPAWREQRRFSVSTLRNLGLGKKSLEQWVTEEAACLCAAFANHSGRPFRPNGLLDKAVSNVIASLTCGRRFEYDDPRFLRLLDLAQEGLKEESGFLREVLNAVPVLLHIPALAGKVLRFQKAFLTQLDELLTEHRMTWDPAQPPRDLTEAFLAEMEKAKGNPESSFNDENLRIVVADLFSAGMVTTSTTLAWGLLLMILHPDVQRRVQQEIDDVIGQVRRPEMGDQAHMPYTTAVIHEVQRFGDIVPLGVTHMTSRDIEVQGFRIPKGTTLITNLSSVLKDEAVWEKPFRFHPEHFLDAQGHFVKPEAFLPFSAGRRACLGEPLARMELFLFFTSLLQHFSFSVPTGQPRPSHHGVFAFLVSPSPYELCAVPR
T1 sequence (P08684 whole entry): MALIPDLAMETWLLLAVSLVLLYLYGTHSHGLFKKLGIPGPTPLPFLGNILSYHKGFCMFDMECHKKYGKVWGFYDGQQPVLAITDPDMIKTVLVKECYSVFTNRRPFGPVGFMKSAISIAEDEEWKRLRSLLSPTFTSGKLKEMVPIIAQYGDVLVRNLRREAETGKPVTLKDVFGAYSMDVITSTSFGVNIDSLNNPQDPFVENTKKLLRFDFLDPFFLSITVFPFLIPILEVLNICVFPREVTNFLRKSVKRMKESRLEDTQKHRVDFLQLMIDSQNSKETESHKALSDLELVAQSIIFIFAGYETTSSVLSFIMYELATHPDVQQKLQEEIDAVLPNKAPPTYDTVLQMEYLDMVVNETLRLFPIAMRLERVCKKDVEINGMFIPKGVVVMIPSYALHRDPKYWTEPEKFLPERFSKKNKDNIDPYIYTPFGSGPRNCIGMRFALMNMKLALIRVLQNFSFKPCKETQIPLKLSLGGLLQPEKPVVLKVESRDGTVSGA
T2 sequence (P08684 whole entry): as above
T6 sequence (P11712 whole entry): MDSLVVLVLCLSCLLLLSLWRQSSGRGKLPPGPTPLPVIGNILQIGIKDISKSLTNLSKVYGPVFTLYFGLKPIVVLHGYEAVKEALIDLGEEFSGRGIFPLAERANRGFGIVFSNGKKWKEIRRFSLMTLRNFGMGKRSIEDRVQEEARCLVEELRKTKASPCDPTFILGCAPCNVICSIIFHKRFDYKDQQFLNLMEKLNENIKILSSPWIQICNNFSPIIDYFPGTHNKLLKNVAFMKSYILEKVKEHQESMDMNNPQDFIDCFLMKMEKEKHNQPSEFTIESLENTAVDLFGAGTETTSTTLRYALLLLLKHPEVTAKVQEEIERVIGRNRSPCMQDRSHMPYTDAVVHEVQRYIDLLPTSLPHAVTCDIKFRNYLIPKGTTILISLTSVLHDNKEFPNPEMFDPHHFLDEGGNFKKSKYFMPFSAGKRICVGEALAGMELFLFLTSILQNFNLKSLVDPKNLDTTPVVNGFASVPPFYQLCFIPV
T3 sequence (P33261 whole entry): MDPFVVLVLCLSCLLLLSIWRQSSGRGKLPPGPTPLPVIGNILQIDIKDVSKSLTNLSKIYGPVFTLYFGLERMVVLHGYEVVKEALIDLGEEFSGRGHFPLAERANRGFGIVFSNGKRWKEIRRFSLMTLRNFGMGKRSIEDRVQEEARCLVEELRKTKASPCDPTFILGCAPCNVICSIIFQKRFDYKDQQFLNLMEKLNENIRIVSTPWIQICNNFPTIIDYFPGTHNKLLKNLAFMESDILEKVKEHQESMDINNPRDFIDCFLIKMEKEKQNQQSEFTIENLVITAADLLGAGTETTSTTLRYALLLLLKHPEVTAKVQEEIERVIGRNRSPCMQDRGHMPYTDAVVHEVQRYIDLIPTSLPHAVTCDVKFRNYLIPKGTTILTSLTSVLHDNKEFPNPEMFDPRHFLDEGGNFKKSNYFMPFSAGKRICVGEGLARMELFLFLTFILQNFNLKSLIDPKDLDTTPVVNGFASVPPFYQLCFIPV

With `O=S(=O)(NCc1ccc2c(c1)OCO2)c1ccc(Cc2ccc(S(=O)(=O)NCc3ccc4c(c3)OCO4)cc2)cc1` [M1i-124], the “CellTiter-Glo viability (% of control)” value in data set [1] (OCI-Ly1, M1i-124 (µM) 0.02) was 107.27% and 98.9873% and 92.7867%; in data set [1] (OCI-Ly1, M1i-124 (µM) 0.05) it was 97.4522% and 115.002% and 102.297%; in data set [1] (OCI-Ly1, M1i-124 (µM) 0.1), 110.647% and 95.1607% and 118.153%; in data set [1] (OCI-Ly1, M1i-124 (µM) 0.2), 107.42% and 81.8681% and 81.0306%; in data set [1] (OCI-Ly1, M1i-124 (µM) 0.5) it was 117.286% and 98.6082% and 99.6544%; in data set [1] (OCI-Ly1, M1i-124 (µM) 1), 125.229% and 113.171% and 94.1756%. For the same compound, the “CellTiter-Glo viability (% of control)” value in [1] (OCI-Ly1, M1i-124 (µM) 2) was 125.761% and 123.625% and 96.808%; in data set [1] (OCI-Ly1, M1i-124 (µM) 5) it was 145.729% and 138.657% and 113.755%. Besides, the IC50 in [2] (Homo sapiens, TMD8 cells, read-out: 50% cytotoxic concentration) is roughly 0.2 µM; in [5] it was 40 µM; in [6] it was 28 µM; in data set [7], 28 µM; in data set [8] it was 13 µM; in data set [9], greater than 100 µM. Further, the IC50 in data set [10] worked out at 21 µM. Also, in data set [2] (result in words), the “viability of TMD8 cells” value is listed as “loss of cell viability; also recorded: dose-dependent decrease in viability”. Besides, the “% Apoptotic cells” value in data set [3] (TMD8, 1 μM, 6 days) was 84.2% and 72.1% and 76.6% and 77.4% and 72.4% and 73.5%. The “Annexin (% positivity)” value in data set [3] (TMD8, individual replicates) is 78.2% and 93.8% and 81.35%; in data set [4] (human primary T cells, 1 µM, day 6), 5.305% and 5.353% and 4.227%. Moreover, the “apoptosis of TMD8 cells” value in data set [3] (result in words) was “induced significant apoptosis; also recorded: selectively induced apoptosis”. For the same compound, in data set [4] (vs untreated control, result in words), the “apoptosis of human primary T cells” value is “no difference”. The Kd in data set [11] amounted to 296 µM.
